Test results taken from ChEMBL document CHEMBL2062441, “An Orally Available 3-Ethoxybenzisoxazole Capsid Binder with Clinical Activity against Human Rhinovirus” (ACS Med Chem Lett, 2012).
Converted amounts (≈) assume the structure as drawn. One block for each compound: values may come before it.

Tests used:
rhinovirus A2 = assay: Antirhinoviral activity against Human rhinovirus 2 infected in human HeLa cells assessed as inhibition of virus-induced cytopathic effect after 5 days by MTT assay; type: functional, organism-based; conditions: Rhinovirus A, 120 h
Human rhinovirus sp. [1] = assay: Antirhinoviral activity against Human rhinovirus 14 infected in human HeLa cells assessed as inhibition of virus-induced cytopathic effect after 5 days by MTT assay; type: functional, organism-based; conditions: Human rhinovirus sp., 14, HeLa, 120 h
in vivo [2] = conditions: male, beagle, dog, plasma, po, 50 mg/kg
Description: AUC in male beagle dog at 50 mg/kg, po

[3] = Tmax in human at 400 mg administered as single dose; conditions: in vivo
[4] = Half life in male beagle dog at 50 mg/kg, po; conditions: in vivo
in vivo [5] = conditions: male, beagle, dog, po, 50 mg/kg
Description: Tmax in male beagle dog at 50 mg/kg, po

in vivo [6] = conditions: female, Lister hooded, rat, po, 50 mg/kg
Description: Oral bioavailability in female lister hooded rat at 50 mg/kg administered as single dose

[7] = Cmax in human at 400 mg administered as single dose; conditions: in vivo
in vivo [8] = conditions: male, Lister hooded, rat, plasma, po, 50 mg/kg
Description: AUC in male lister hooded rat at 50 mg/kg, po

in vivo [9] = conditions: female, beagle, dog, po, 50 mg/kg
Description: Tmax in female beagle dog at 50 mg/kg, po

[10] = Half life in human at 400 mg administered as single dose; conditions: in vivo
[11] = Half life in female beagle dog at 50 mg/kg, po; conditions: in vivo
in vivo [12] = conditions: female, beagle, dog, po, 50 mg/kg; remark: listed apart in the source
Description: Cmax in female beagle dog at 50 mg/kg, po

[13] = Half life in male lister hooded rat at 50 mg/kg, po; conditions: in vivo
in vivo [14] = conditions: female, beagle, dog, plasma, po, 50 mg/kg
Description: AUC in female beagle dog at 50 mg/kg, po

in vivo [15] = conditions: female, Lister hooded, rat, plasma, po, 50 mg/kg
Description: AUC in female lister hooded rat at 50 mg/kg, po

in vivo [16] = conditions: male, Lister hooded, rat, po, 50 mg/kg
Description: Cmax in male lister hooded rat at 50 mg/kg, po

in vivo [17] = conditions: male, Lister hooded, rat, po, 50 mg/kg; remark: listed apart in the source
Description: Tmax in male lister hooded rat at 50 mg/kg, po

[18] = Half life in female lister hooded rat at 50 mg/kg, po; conditions: in vivo
in vivo [19] = conditions: female, Lister hooded, rat, po, 50 mg/kg; remark: listed apart in the source
Description: Tmax in female lister hooded rat at 50 mg/kg, po

in vivo [20] = conditions: male, beagle, dog, po, 50 mg/kg; remark: listed apart in the source
Description: Cmax in male beagle dog at 50 mg/kg, po

in vivo [21] = conditions: female, Lister hooded, rat, po, 50 mg/kg; remark: listed apart in the source
Description: Cmax in female lister hooded rat at 50 mg/kg, po

in vivo [22] = conditions: male, Lister hooded, rat, po, 50 mg/kg; remark: listed apart in the source
Description: Oral bioavailability in male lister hooded rat at 50 mg/kg administered as single dose

[23] = AUC (0 to infinity) in human at 400 mg administered as single dose; conditions: plasma
Human rhinovirus sp. [24] = assay: Antirhinoviral activity against antiviral-resistant Human rhinovirus B infected in human HeLa cells assessed as inhibition of virus-induced cytopathic effect after 5 days by MTT assay; type: functional, organism-based; conditions: 120 h
Human rhinovirus sp. [25] = assay: Ratio of EC50 for antiviral-resistant Human rhinovirus B to EC50 for antiviral-resistant Human rhinovirus A; type: functional
Human rhinovirus sp. [26] = assay: Antirhinoviral activity against Human rhinovirus B infected in human HeLa cells assessed as inhibition of virus-induced cytopathic effect after 5 days by MTT assay; type: functional, organism-based; conditions: 120 h
Human rhinovirus sp. [27] = assay: Antirhinoviral activity against major receptor-resistant Human rhinovirus infected in human HeLa cells assessed as inhibition of virus-induced cytopathic effect after 5 days by MTT assay; type: functional, organism-based; conditions: 120 h
Human rhinovirus sp. [28] = assay: Ratio of EC50 for Human rhinovirus B to EC50 for Human rhinovirus A; type: functional
Human rhinovirus sp. [29] = assay: Ratio of EC50 for major receptor-resistant Human rhinovirus B to EC50 for minor receptor-resistant Human rhinovirus A; type: functional
Human rhinovirus sp. [30] = assay: Antirhinoviral activity against minor receptor-resistant Human rhinovirus infected in human HeLa cells assessed as inhibition of virus-induced cytopathic effect after 5 days by MTT assay; type: functional, organism-based; conditions: 120 h
Human rhinovirus sp. [31] = assay: Antirhinoviral activity against Human rhinovirus A infected in human HeLa cells assessed as inhibition of virus-induced cytopathic effect after 5 days by MTT assay; type: functional, organism-based; conditions: 120 h
Human rhinovirus sp. [32] = assay: Antirhinoviral activity against antiviral-resistant Human rhinovirus A infected in human HeLa cells assessed as inhibition of virus-induced cytopathic effect after 5 days by MTT assay; type: functional, organism-based; conditions: 120 h

Compound: CCc1noc2cc(OCCC3CCN(c4ccc(C)nn4)CC3)ccc12
EC50 (rhinovirus A2): 24 ng/mL (≈ 0.0655 µM)
EC50 (Human rhinovirus sp. [1]): 88 ng/mL (≈ 0.24 µM)

AUC (in vivo [2]): 202 µg·h/mL
Tmax [3]: 1.03 h
half-life [4]: 18.3 h
Tmax (in vivo [5]): 14.7 h
bioavailability (in vivo [6]): 95%
Cmax [7]: 1890 ng/mL
AUC (in vivo [8]): 483 µg·h/mL
Tmax (in vivo [9]): 7.7 h
half-life [10]: 11.8 h
half-life [11]: 15.9 h
Cmax (in vivo [12]): 6100 ng/mL
half-life [13]: 51.6 h
AUC (in vivo [14]): 121 µg·h/mL
AUC (in vivo [15]): 489 µg·h/mL
Cmax (in vivo [16]): 22500 ng/mL
Tmax (in vivo [17]): 16 h
half-life [18]: 46.4 h
Tmax (in vivo [19]): 11.2 h
Cmax (in vivo [20]): 11000 ng/mL
Cmax (in vivo [21]): 17700 ng/mL
bioavailability (in vivo [22]): 94%
AUC(0-inf) [23]: 13.8 µg·h/mL
Compound: CCOc1noc2cc(OCCC3CCN(c4ccc(C)nn4)CC3)ccc12 [VAPENDAVIR]
EC50 (rhinovirus A2): 1 ng/mL (≈ 0.00261 µM)

Compound: CCOc1noc2cc(OCCCC3CCN(c4ccc(Cl)nn4)CC3)ccc12
EC50 (rhinovirus A2): 3 ng/mL (≈ 0.0072 µM)
EC50 (Human rhinovirus sp. [1]): 9 ng/mL (≈ 0.0216 µM)

Compound: CCOc1noc2cc(OCCC3CCN(c4ccc(Cl)nn4)CC3)ccc12
EC50 (rhinovirus A2): 3 ng/mL (≈ 0.00745 µM)
EC50 (Human rhinovirus sp. [1]): 19 ng/mL (≈ 0.0472 µM)

Compound: CCCOc1noc2cc(OCCC3CCN(c4ccc(C)nn4)CC3)ccc12
EC50 (rhinovirus A2): 3 ng/mL (≈ 0.00757 µM)
EC50 (Human rhinovirus sp. [1]): 29 ng/mL (≈ 0.0731 µM)

Compound: CCCc1noc2cc(OCCC3CCN(c4ccc(C)nn4)CC3)ccc12
EC50 (rhinovirus A2): 84 ng/mL (≈ 0.221 µM)
EC50 (Human rhinovirus sp. [1]): 13 ng/mL (≈ 0.0342 µM)

Compound: Cc1cc(CCCOc2c(C)cc(-c3noc(C(F)(F)F)n3)cc2C)on1 [PLECONARIL]
EC50 (Human rhinovirus sp. [24]): 33.8 ng/mL (≈ 0.0886 µM)
Ratio EC50 (Human rhinovirus sp. [25]): 11.5
EC50 (Human rhinovirus sp. [26]): 224 ng/mL (≈ 0.588 µM)
EC50 (Human rhinovirus sp. [27]): 49.2 ng/mL (≈ 0.129 µM)
Ratio EC50 (Human rhinovirus sp. [28]): 6
Ratio EC50 (Human rhinovirus sp. [29]): 2.1
EC50 (Human rhinovirus sp. [30]): 23.2 ng/mL (≈ 0.0608 µM)
EC50 (Human rhinovirus sp. [31]): 37.4 ng/mL (≈ 0.0981 µM)
EC50 (Human rhinovirus sp. [32]): 388 ng/mL (≈ 1.02 µM)

Compound: CCOc1nsc2cc(OCCC3CCN(c4ccc(C)nn4)CC3)ccc12
EC50 (rhinovirus A2): 3 ng/mL (≈ 0.00753 µM)
EC50 (Human rhinovirus sp. [1]): 29 ng/mL (≈ 0.0728 µM)

Compound: CCOC(=O)c1ccc(OCCC2CCN(c3ccc(C)nn3)CC2)cc1 [PIRODAVIR]
EC50 (Human rhinovirus sp. [24]): 2.6 ng/mL (≈ 0.00704 µM)
Ratio EC50 (Human rhinovirus sp. [25]): 8.1
EC50 (Human rhinovirus sp. [26]): 11.1 ng/mL (≈ 0.03 µM)
EC50 (Human rhinovirus sp. [27]): 5.6 ng/mL (≈ 0.0152 µM)
Ratio EC50 (Human rhinovirus sp. [28]): 2.8
Ratio EC50 (Human rhinovirus sp. [29]): 2.4
EC50 (Human rhinovirus sp. [30]): 2.3 ng/mL (≈ 0.00623 µM)
EC50 (Human rhinovirus sp. [31]): 4 ng/mL (≈ 0.0108 µM)
EC50 (rhinovirus A2): 3 ng/mL (≈ 0.00812 µM)
EC50 (Human rhinovirus sp. [1]): 4 ng/mL (≈ 0.0108 µM)
EC50 (Human rhinovirus sp. [32]): 20.6 ng/mL (≈ 0.0558 µM)

Compound: CCOC(=O)/C=C/[C@H](C[C@@H]1CCNC1=O)NC(=O)[C@@H](CC(=O)[C@@H](NC(=O)c1cc(C)on1)C(C)C)Cc1ccc(F)cc1 [RUPINTRIVIR]
EC50 (Human rhinovirus sp. [24]): 2 ng/mL (≈ 0.00334 µM)
Ratio EC50 (Human rhinovirus sp. [25]): 1.7
EC50 (Human rhinovirus sp. [26]): 1.2 ng/mL (≈ 0.002 µM)
EC50 (Human rhinovirus sp. [27]): 1.5 ng/mL (≈ 0.00251 µM)
Ratio EC50 (Human rhinovirus sp. [28]): 1.7
Ratio EC50 (Human rhinovirus sp. [29]): 2
EC50 (Human rhinovirus sp. [30]): 3 ng/mL (≈ 0.00501 µM)
EC50 (Human rhinovirus sp. [31]): 2 ng/mL (≈ 0.00334 µM)
EC50 (Human rhinovirus sp. [32]): 1.2 ng/mL (≈ 0.002 µM)
